Experimental data taken from patent publication US8895550B2, “Triazolopyridine compounds as PIM kinase inhibitors” (Array BioPharma Inc., priority 2008, dated 2014).

Legend:
Format in all cases: biochemical
[1] = target: PIM-1 (Homo sapiens, UniProt P11309); assay: Enzyme PIM-1 Assay (radiometric [33P]ATP incorporation into PIM2tide, filter plate); conditions: 35 μM ATP, 7.5 μM PIM2tide, 0.25 nM PIM-1, 60 min at 22° C.; high dose 10 μM
Procedure: (§1) The assay for the determination of PIM-1 activity is based on the incorporation of [^33P]PO4 from [γ-^33P]ATP into PIM2tide substrate and capture of the radiolabeled peptide onto a Whatman P81 (phosphocellulose) filter plate. The amount of radiolabeled product is then measured by liquid scintillation counting. The final buffer conditions were as follows: 20 mM K^+MOPS, pH 7.4, 10 mM MgCl2, 0.005% Tween-20, 1 mM DTT. Assay mixtures contained 35 μM [γ-^33P]ATP (20 μCi/mL), 7.5 μM PIM2tide and 0.25 nM PIM-1 in a total volume of 50 μL. Incubations were carried out for 60 min at 22° C. and quenched with 75 μL, of 200 mM H3PO4, filtered through a Whatman P81 plate and washed (1×200 μL and 5×100 μL) with 200 mM H3PO4. Fifty μL of liquid scintillation cocktail were then added per well, and the plate was counted for 30 s/well using a TopCount NXT.
(§2) Compounds were prepared at 50× the final concentration in DMSO by conducting 3-fold serial dilutions from a 500-μM intermediate dilution to give a 10-point dosing curve having a high dose of 10 μM. One-μL aliquots of these were then transferred to the assay mixtures above to give a final concentration of DMSO of 2%. A standard or reference compound was typically included on each assay plate to validate that plate. For each plate, percent of control (POC) values were calculated for each well. IC50's were estimated from the POC's using a standard 4-parameter logistic model. The IC50 is defined as the concentration of inhibitor at which the POC equals 50 for the fitted curve.

[2] = target: recombinant rat PIM-3 (Rattus norvegicus, UniProt O70444); assay: PIM-3 Assay (as Example A with recombinant rat PIM-3); conditions: 30 μM ATP, 3.75 μM PIM2tide, 0.5 nM PIM-3; high dose 10 μM
Procedure: as §1, §2
Assay was performed as described in Example A, using 30 μM [γ-^33P]ATP (20 μCi/mL), 3.75 μM PIM2tide and 0.5 nM recombinant rat PIM-3 in place of PIM-1.

[3] = target: T1, GST-tagged recombinant full-length human Pim-2 (Homo sapiens, UniProt Q9P1W9); assay: PIM-2 Assay (as Example A with GST-tagged recombinant full-length human Pim-2); conditions: 4 μM ATP, 1.0 μM PIM2tide, 1.5 nM Pim-2; high dose 10 μM
T1 construct: GST-tagged recombinant full-length human Pim-2; GST
T1 sequence (Q9P1W9 whole entry): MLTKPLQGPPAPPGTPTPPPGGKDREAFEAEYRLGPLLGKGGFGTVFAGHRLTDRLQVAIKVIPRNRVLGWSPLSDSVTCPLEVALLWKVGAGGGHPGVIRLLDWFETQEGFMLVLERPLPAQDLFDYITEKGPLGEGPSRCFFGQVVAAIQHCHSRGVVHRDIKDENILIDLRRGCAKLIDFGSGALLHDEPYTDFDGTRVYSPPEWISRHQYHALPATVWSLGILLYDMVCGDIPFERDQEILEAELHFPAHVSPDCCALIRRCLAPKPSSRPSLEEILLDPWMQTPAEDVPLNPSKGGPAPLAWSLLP
Procedure: as §1, §2
Assay was performed as described in Example A, using 4 μM [γ-^33P]ATP (20 μCi/mL), 1.0 μM PIM2tide and 1.5 nM GST-tagged recombinant full-length human Pim-2 in place of PIM-1.

PIM-1, sequence (P11309 whole entry, species assumed): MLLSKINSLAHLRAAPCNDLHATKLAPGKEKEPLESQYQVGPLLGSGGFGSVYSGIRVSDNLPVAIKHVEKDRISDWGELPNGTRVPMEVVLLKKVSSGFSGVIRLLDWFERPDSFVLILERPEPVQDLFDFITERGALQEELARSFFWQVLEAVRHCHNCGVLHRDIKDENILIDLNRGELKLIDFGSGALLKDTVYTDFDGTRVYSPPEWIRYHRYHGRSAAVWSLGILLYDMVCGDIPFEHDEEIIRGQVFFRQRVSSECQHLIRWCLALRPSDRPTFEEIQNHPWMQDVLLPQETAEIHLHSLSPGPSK

Compound	IC50 [1] [nM]	IC50 [2] [nM]	IC50 [3] [nM]
C[C@@H]1CN(c2cccc3ccc(-c4nnc5ccccn45)nc23)C[C@H](C)N1 [Example 8, 2-([1,2,4]Triazolo[4,3-a]pyridin-3-yl)-8-((cis)-3,5-dimethylpiperazin-1-yl)quinoline]	54	189	≥ 10000
NCC1CCN(c2cc(Cl)cc3ccc(-c4nnc5ccccn45)nc23)CC1 [Example 18, (1-(2-([1,2,4]Triazolo[4,3-a]pyridin-3-yl)-6-chloroquinolin-8-yl)piperidin-4-yl)methanamine]	32	25	736
NCC1CCN(c2cccc3ccc(-c4nnc5ccccn45)nc23)CC1 [Example 10, (1-(2-([1,2,4]Triazolo[4,3-a]pyridin-3-yl)quinolin-8-yl)piperidin-4-yl)methanamine]	3	13	224
COc1ccn2c(-c3ccc4cccc(N5CCNCC5)c4n3)nnc2c1 [Example 2, 2-(7-Methoxy-[1,2,4]triazolo[4,3-a]pyridin-3-yl)-8-(piperazin-1-yl)quinoline]	179		≥ 10000
COc1ccn2c(-c3ccc4cccc(N5CCC(N)CC5)c4n3)nnc2c1 [Example 3, 1-(2-(7-Methoxy-[1,2,4]triazolo[4,3-a]pyridin-3-yl)quinolin-8-yl)piperidin-4-amine]	24	60	2310
COc1ccn2c(-c3ccc4cccc(N5CCOCC5)c4n3)nnc2c1 [Example 4, 4-(2-(7-Methoxy-[1,2,4]triazolo[4,3-a]pyridin-3-yl)quinolin-8-yl)morpholine]	2790		≥ 10000
NCc1ccn2c(-c3ccc4cccc(N5CCC(CN)CC5)c4n3)nnc2c1 [Example 13, (1-(2-(7-(Aminomethyl)-[1,2,4]triazolo[4,3-a]pyridin-3-yl)quinolin-8-yl)piperidin-4-yl)methanamine]	2	4	29
CCNCc1ccn2c(-c3ccc4cccc(N5CCC(CN)CC5)c4n3)nnc2c1 [Example 12, N-((3-(8-(4-(aminomethyl)piperidin-1-yl)quinolin-2-yl)-[1,2,4]triazolo[4,3-a]pyridin-7-yl)methyl)ethanamine]	3	4	92
NCC1CCN(c2ccc(F)c3ccc(-c4nnc5ccccn45)nc23)CC1 [Example 17, (1-(2-([1,2,4]triazolo[4,3-a]pyridin-3-yl)-5-fluoroquinolin-8-yl)piperidin-4-yl)methanamine]	77	51	1960
C[C@@H]1CN(c2cccc3ccc(-c4nnc5ccccn45)nc23)CCN1 [Example 7, (R)-2-([1,2,4]Triazolo[4,3-a]pyridin-3-yl)-8-(3-methylpiperazin-1-yl)quinoline]	17	105	3590
OCC1CCCN(c2cccc3ccc(-c4nnc5ccccn45)nc23)C1 (stereo not drawn) [Example 15, (1-(2-([1,2,4]Triazolo[4,3-a]pyridin-3-yl)quinolin-8-yl)piperidin-3-yl)methanol]	15		2080
OC1CCCN(c2cccc3ccc(-c4nnc5ccccn45)nc23)C1 (stereo not drawn) [Example 20, 1-(2-([1,2,4]triazolo[4,3-a]pyridin-3-yl)quinolin-8-yl)piperidin-3-ol]	48		2380
NCC1CCN(c2cccc3ccc(-c4nnc5cc(CO)ccn45)nc23)CC1 [Example 11, (3-(8-(4-(Aminomethyl)piperidin-1-yl)quinolin-2-yl)-[1,2,4]triazolo[4,3-a]pyridin-7-yl)methanol]	84	217	2600
CC1(C)CN(c2cccc3ccc(-c4nnc5ccccn45)nc23)CCN1 [Example 23, 2-([1,2,4]triazolo[4,3-a]pyridin-3-yl)-8-(3,3-dimethylpiperazin-1-yl)quinoline]	22	62	647
NCC1CCN(c2cc(F)cc3ccc(-c4nnc5ccccn45)nc23)CC1 [Example 16, (1-(2-([1,2,4]triazolo[4,3-a]pyridin-3-yl)-6-fluoroquinolin-8-yl)piperidin-4-yl)methanamine]	3	10	185
NCC1CCN(c2cccc3ccc(-c4nnc5cc(C(O)CO)ccn45)nc23)CC1 (stereo not drawn) [Example 14, 1-(3-(8-(4-(Aminomethyl)piperidin-1-yl)quinolin-2-yl)-[1,2,4]triazolo[4,3-a]pyridin-7-yl)ethane-1,2-diol]	4	20	509
NC1CCN(c2cccc3ccc(-c4nnc5ccccn45)nc23)CC1 [Example 9, 1-(2-([1,2,4]Triazolo[4,3-a]pyridin-3-yl)quinolin-8-yl)piperidin-4-amine]	11	24	543

The remaining compounds from weak to strong by IC50 [1], led by results:

IC50 [1] [nM]	IC50 [2] [nM]	IC50 [3] [nM]	Compound
270		3100	N[C@H]1CCCN(c2cccc3ccc(-c4nnc5ccccn45)nc23)C1 [Example 22, (S)-1-(2-([1,2,4]triazolo[4,3-a]pyridin-3-yl)quinolin-8-yl)piperidin-3-amine]
255	554	≥ 10000	COCCOc1ccn2c(-c3ccc4cccc(N5CCNCC5)c4n3)nnc2c1 [Example 1, 2-(7-(2-Methoxyethoxy)-[1,2,4]triazolo[4,3-a]pyridin-3-yl)-8-(piperazin-1-yl)quinoline]
150		≥ 10000	Cc1nc(CN2CCN(c3cccc4ccc(-c5nnc6ccccn56)nc34)CC2)cs1 [Example 24, 4-((4-(2-([1,2,4]triazolo[4,3-a]pyridin-3-yl)quinolin-8-yl)piperazin-1-yl)methyl)-2-methylthiazole]
128		3020	CC1CCCN(c2c(Br)ccc3ccc(-c4nnc5ccccn45)nc23)C1 (stereo not drawn) [Example 25, 2-([1,2,4]triazolo[4,3-a]pyridin-3-yl)-7-bromo-8-(3-methylpiperidin-1-yl)quinoline]
34	38	570	N[C@@H]1CCN(c2cccc3ccc(-c4nnc5ccccn45)nc23)C[C@@H]1F (relative stereo) [Example 27, (cis)-1-(2-([1,2,4]triazolo[4,3-a]pyridin-3-yl)quinolin-8-yl)-3-fluoropiperidin-4-amine]
31	105	2980	c1cc(N2CCNCC2)c2nc(-c3nnc4ccccn34)ccc2c1 [Example 6, 2-([1,2,4]Triazolo[4,3-a]pyridin-3-yl)-8-(piperazin-1-yl)quinoline]
24	121	2600	c1cc(N2CCCCC2)c2nc(-c3nnc4ccccn34)ccc2c1 [Example 5, 2-([1,2,4]Triazolo[4,3-a]pyridin-3-yl)-8-(piperidin-1-yl)quinoline]
21	62	613	CC1(N)CCN(c2cccc3ccc(-c4nnc5ccccn45)nc23)CC1 [Example 26, 1-(2-([1,2,4]triazolopyridin-3-yl)quinolin-8-yl)-4-methylpiperidin-4-amine]
18		1800	CC1CCCN(c2cccc3ccc(-c4nnc5ccccn45)nc23)C1 (stereo not drawn) [Example 19, 2-([1,2,4]triazolo[4,3-a]pyridin-3-yl)-8-(3-methylpiperidin-1-yl)quinoline]
7		142	N[C@@H]1CCCN(c2cccc3ccc(-c4nnc5ccccn45)nc23)C1 [Example 21, (R)-1-(2-([1,2,4]triazolo[4,3-a]pyridin-3-yl)quinolin-8-yl)piperidin-3-amine]
